According to ChEMBL document CHEMBL1201862, “PubChem BioAssay data set” (2004):
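Cultured in 96-well plates, cells were exposed to test compound for 48 hours across five concentrations. The concentration for 50% growth inhibition is given as GI50.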 Calls of active or inactive are those of the source. Rule as the data show it: active = GI50 up to about 1.1 µM and inactive = higher.

Assays:
Assay in all cases: DTP human tumour cell line panel, 48 h
SW-620 = tested on: SW-620
CAKI-1 = tested on: CAKI-1
SF-268 = tested on: SF-268
NCI-H522 = tested on: NCI-H522
TK-10 = tested on: TK-10
K562 = tested on: K562
A498 = tested on: A498
HL-60 = tested on: HL-60
UACC-257 = tested on: UACC-257
SNB-75 = tested on: SNB-75
SK-OV-3 = tested on: SK-OV-3
RXF 393 = tested on: RXF 393
RPMI-8226 = tested on: RPMI-8226
SK-MEL-2 = tested on: SK-MEL-2
Malme-3M = tested on: Malme-3M
NCI-H226 = tested on: NCI-H226
SNB-19 = tested on: SNB-19
HOP-62 = tested on: HOP-62
SK-MEL-28 = tested on: SK-MEL-28

Structure (SMILES)	GI50 (SW-620)	GI50 (CAKI-1)	GI50 (SF-268)	GI50 (NCI-H522)	GI50 (TK-10)	GI50 (K562)	GI50 (A498)	GI50 (HL-60)	GI50 (UACC-257)	GI50 (SNB-75)	GI50 (SK-OV-3)	GI50 (RXF 393)	GI50 (RPMI-8226)	GI50 (SK-MEL-2)	GI50 (Malme-3M)	GI50 (NCI-H226)	GI50 (SNB-19)	GI50 (HOP-62)	GI50 (SK-MEL-28)
O=C1C(Cl)=C(Sc2nnc3c4ccccc4c4ccccc4c3n2)C(=O)c2ccccc21	23.1 µM (inactive)	17 µM (inactive)	27.5 µM (inactive)	15.2 µM (inactive)	22 µM (inactive)	21.1 µM (inactive)	20.3 µM (inactive)	2.74 µM (inactive)	16.3 µM (inactive)	2.97 µM (inactive)	21.6 µM (inactive)	17.1 µM (inactive)	13.7 µM (inactive)	16.6 µM (inactive)	3.26 µM (inactive)	19.3 µM (inactive)	18.7 µM (inactive)	16.7 µM (inactive)	21.8 µM (inactive)
CCN1C/C(=C\c2cc(OC)c(OC)c(OC)c2)C2=NN(c3ccccc3)C(c3cc(OC)c(OC)c(OC)c3)C2C1 (stereo not drawn)	2.56 µM (inactive)	0.91 µM (active)	0.365 µM (active)	1.13 µM (inactive)	1.65 µM (inactive)	1.65 µM (inactive)	17.1 µM (inactive)	3.03 µM (inactive)	3.35 µM (inactive)	0.268 µM (active)	1.74 µM (inactive)	0.75 µM (active)	1.13 µM (inactive)	6.84 µM (inactive)	0.203 µM (active)	4.68 µM (inactive)	1.97 µM (inactive)	0.855 µM (active)	0.871 µM (active)
COC(=O)c1ccc2c(c1)sc1nc(-c3ccc(OC)cc3)cn12	> 100 µM (inactive)	> 100 µM (inactive)	83.8 µM (inactive)	62.2 µM (inactive)	> 100 µM (inactive)	38.2 µM (inactive)	> 100 µM (inactive)	25.1 µM (inactive)	49 µM (inactive)	34.8 µM (inactive)	> 100 µM (inactive)	69.8 µM (inactive)	32.4 µM (inactive)	> 100 µM (inactive)	> 100 µM (inactive)	> 100 µM (inactive)	66.5 µM (inactive)	> 100 µM (inactive)	> 100 µM (inactive)
CC1CC[C@@]2(OC1)O[C@H]1C[C@H]3[C@@H]4CC[C@H]5C[C@@H](OC6OC(CO)C(OC7OC(CO)C(OC8OC(CO)C(O)C(OC9OC(C)C(OC%10OC(C)C(O)C(O)C%10O)C(O)C9O)C8OC8OCC(O)C(O)C8O)C(O)C7O)C(O)C6O)CC[C@]5(C)[C@H]4CC(=O)[C@]3(C)[C@H]1[C@@H]2C (stereo partly drawn)	20.3 µM (inactive)	15.6 µM (inactive)	25.6 µM (inactive)	23.7 µM (inactive)	17.7 µM (inactive)	16.7 µM (inactive)	18.2 µM (inactive)	12.9 µM (inactive)	18.2 µM (inactive)	19.8 µM (inactive)	24.1 µM (inactive)	16.9 µM (inactive)	16.2 µM (inactive)	16.1 µM (inactive)	22.4 µM (inactive)	18.8 µM (inactive)	20.5 µM (inactive)	21.4 µM (inactive)	18.1 µM (inactive)
COc1ccc(C(c2c[nH]c3ccc(Br)cc23)c2c[nH]c3ccc(Br)cc23)cc1	0.29 µM (active)	0.382 µM (active)	0.33 µM (active)	0.173 µM (active)	0.993 µM (active)	0.167 µM (active)	1.04 µM (active)	0.0828 µM (active)	0.29 µM (active)	0.352 µM (active)	1.24 µM (inactive)	0.278 µM (active)	0.175 µM (active)	0.366 µM (active)	0.811 µM (active)	0.938 µM (active)	0.509 µM (active)	0.411 µM (active)	0.303 µM (active)
O=C(CC(Cc1ccccc1)c1ccc(Oc2ccccc2)cc1)Nc1cccc(Cl)c1 (stereo not drawn)	4.42 µM (inactive)	3.66 µM (inactive)	19.2 µM (inactive)	3.1 µM (inactive)	10 µM (inactive)	3.34 µM (inactive)	4.47 µM (inactive)	3.02 µM (inactive)	11 µM (inactive)	6.73 µM (inactive)	5.46 µM (inactive)	5.41 µM (inactive)	3.72 µM (inactive)	3.56 µM (inactive)	15 µM (inactive)	7.48 µM (inactive)	4.5 µM (inactive)	3.83 µM (inactive)	9.16 µM (inactive)
CC(C)C(=O)/C=C/c1c(Cl)cccc1Cl	2.98 µM (inactive)	3.47 µM (inactive)	2.39 µM (inactive)	1.19 µM (inactive)	12.1 µM (inactive)	9.35 µM (inactive)	21.2 µM (inactive)	5.36 µM (inactive)	7.41 µM (inactive)	2.25 µM (inactive)	3.28 µM (inactive)	5.43 µM (inactive)	> 100 µM (inactive)	2.25 µM (inactive)	4.45 µM (inactive)	2.33 µM (inactive)	10.8 µM (inactive)	5.83 µM (inactive)	5.81 µM (inactive)
